# Data from EP0593348A1, “Thiazolidine dione derivatives, process for their preparation and pharmaceutical compositions containing them” (ADIR ET COMPAGNIE, priority 1992, dated 1994).
# Read-outs that look alike come from different tables or passages of the source.
# Columns and labels:
# souris ob/ob = experiment: Hypoglycaemic activity in a non-insulin-dependent diabetes (NIDDM) model, ob/ob mice; type: in vivo; settings: oral, 4 days, base 100, reached at the dose given
# Source text: A/ Etude de l'activité des composés de l'invention sur un modèle de diabète non insulino-dépendant (NIDDM).
# Les animaux (souris ob/ob) sont traités chaque jour, pendant 4 jours, en administrant par voie orale, les composés de l'invention en suspension dans une solution à 20 % de gomme du Sénégal. Avant et après traitement, soit à J0 et à J5, le sang est prélevé par ponction du sinus orbital et la glycémie est déterminée. Le tableau 1 présente les doses des différents produits à administrer pour obtenir le même effet hypoglycémiant (base 100).
# rats Zucker Fa/Fa mâles = experiment: Model of reduced glucose tolerance with hyperinsulinaemia and hyperlipaemia, male Zucker Fa/Fa rats; type: in vivo; settings: 5 mg/kg/jour oral for 10 days; for Glycémie (%) / Plasma insuline (%): blood on day 11, control = 100; for Poids ΔP% J₁₁-J₁: control = +100; for AGL (%): plasma free fatty acids; for AGL (%) / TG (%): control = 100; for TG (%): plasma triglycerides
# Experimental: B/ Etude de l'activité des composés de l'invention sur un modèle de tolérance au glucose diminuée associée à une hyperinsulinémie et une hyperlipémie .
# Les animaux (rats Zucker Fa/Fa mâles) sont traités, chaque jour, pendant 10 jours, en administrant, par voie orale, les composés de l'invention à la dose de 5 mg/kg/jour en suspension dans une solution à 20 % de gomme du Sénégal. Le 11ème jour, les animaux sont sacrifiés et le sang recueilli afin de déterminer la glycémie, les triglycérides plasmatiques et l'insuline immuno-réactive. D'autre part, les animaux sont pesés avant et après traitement.
# Dans ces conditions, les composés de l'invention n'ont pas d'influence sur le taux de glucose circulant mais diminuent le taux de triglycérides (TG) et d'acides gras libres plasmatiques (AGL) ainsi que celui de l'insuline immuno-réactive. Cette activité est égale ou supérieure à celle d'autres dérivés de thiazolidinedione de référence.
# rats SDCD mâles = settings: rat, in vivo
# Source text: Administrés per os à des rats SDCD mâles pesant 175 g les produits sont sans effet sur les éléments figurés du sang et le volume plasmatique, à la différence de la pioglitazone : […]
smiles,measurement,setting,value
"CN(C)c1ccccc1C(=O)NCCc1ccc(CC2SC(=O)NC2=O)cc1 (racemic) [Exemple 28, (R,S) 5-{4-[2-(2-diméthylaminobenzamido)éthyl]benzyl}thiazolidine-2,4-dione]",Pouvoir hypoglycémiant,souris ob/ob,100
same,Glycémie (%),rats Zucker Fa/Fa mâles,99%
same,Plasma insuline (%),rats Zucker Fa/Fa mâles,75%
same,Poids ΔP% J₁₁-J₁,rats Zucker Fa/Fa mâles,+103%
same,AGL (%),rats Zucker Fa/Fa mâles,110%
same,TG (%),rats Zucker Fa/Fa mâles,89%
"O=C1NC(=O)C(Cc2ccc(CCNC(=O)c3cccs3)cc2)S1 (racemic) [Exemple 35, (R,S) 5-{4-[2-(thién-2-ylcarbonylamino)éthyl]benzyl}thiazolidine-2,4-dione]",Pouvoir hypoglycémiant,souris ob/ob,100
"COc1ccc(Cl)cc1C(=O)NCCCc1ccc(CC2SC(=O)NC2=O)cc1 (racemic) [Exemple 33, (R,S) 5-{4-[3-(2-méthoxy-5-chlorobenzamido)propyl]benzyl}thiazolidine-2,4-dione]",Pouvoir hypoglycémiant,souris ob/ob,100
"O=C1NC(=O)C(Cc2ccc(CCNC(=O)C3c4ccccc4Oc4ccccc43)cc2)S1 (racemic) [Exemple 45, (R,S) 5-{4-[2-(xanthén-9-ylcarbonylamino)éthyl]benzyl}thiazolidine-2,4-dione]",Pouvoir hypoglycémiant,souris ob/ob,100
"COc1ccc(Cl)cc1C(=O)NCc1ccc(CC2SC(=O)NC2=O)cc1 (racemic) [Exemple 36, (R,S) 5-{4-[(5-chloro-2-méthoxybenzamido)méthyl]benzyl}thiazolidine-2,4-dione]",Pouvoir hypoglycémiant,souris ob/ob,100
"O=C1NC(=O)C(Cc2ccc(CCN3C(=O)c4ccccc4C3=O)cc2)S1 (stereo not drawn) [Exemple 4, 5-{4-[2-(phtalimido)éthyl]benzyl}thiazolidine-2,4-dione]",Pouvoir hypoglycémiant,souris ob/ob,100
same,Glycémie (%),rats Zucker Fa/Fa mâles,108%
same,Plasma insuline (%),rats Zucker Fa/Fa mâles,72%
same,Poids ΔP% J₁₁-J₁,rats Zucker Fa/Fa mâles,+132%
same,AGL (%),rats Zucker Fa/Fa mâles,108%
same,TG (%),rats Zucker Fa/Fa mâles,78%
"CCc1ccc(CCOc2ccc(CC3SC(=O)NC3=O)cc2)nc1 (stereo not drawn) [Pioglitazone, reference compound]",Glycémie (%),rats Zucker Fa/Fa mâles,115%
same,Plasma insuline (%),rats Zucker Fa/Fa mâles,49%
same,Poids ΔP% J₁₁-J₁,rats Zucker Fa/Fa mâles,+320%
same,AGL (%),rats Zucker Fa/Fa mâles,57%
same,TG (%),rats Zucker Fa/Fa mâles,35%
same,Globules blancs,rats SDCD mâles; 100 mg/kg,- 46%
same,Globules rouges,rats SDCD mâles; 100 mg/kg,- 37%
same,Hématocrite,rats SDCD mâles; 100 mg/kg,- 26%
same,Hémoglobine,rats SDCD mâles; 100 mg/kg,- 29%
"COc1ccc(Cl)cc1C(=O)NCCc1ccc(CC2SC(=O)NC2=O)cc1 (stereo not drawn) [Exemple 1, 5-{4-[2-(2-méthoxy 5-chlorobenzamido) éthyl]benzyl} thiazolidine 2,4-dione]",Pouvoir hypoglycémiant,souris ob/ob,100
same,Glycémie (%),rats Zucker Fa/Fa mâles,113%
same,Plasma insuline (%),rats Zucker Fa/Fa mâles,71%
same,Poids ΔP% J₁₁-J₁,rats Zucker Fa/Fa mâles,+112%
same,AGL (%),rats Zucker Fa/Fa mâles,83%
same,TG (%),rats Zucker Fa/Fa mâles,94%
same,Globules blancs,rats SDCD mâles; 100 mg/kg,- 6%
same,Globules rouges,rats SDCD mâles; 100 mg/kg,- 2%
same,Hématocrite,rats SDCD mâles; 100 mg/kg,+ 11%
same,Hémoglobine,rats SDCD mâles; 100 mg/kg,+ 11%
same,Globules blancs,rats SDCD mâles; 250 mg/kg,- 4%
same,Globules rouges,rats SDCD mâles; 250 mg/kg,- 11%
same,Hématocrite,rats SDCD mâles; 250 mg/kg,+ 4%
same,Hémoglobine,rats SDCD mâles; 250 mg/kg,+ 4%
"CC1(COc2ccc(CC3SC(=O)NC3=O)cc2)CCCCC1 (stereo not drawn) [Ciglitazone, reference compound]",Pouvoir hypoglycémiant,souris ob/ob,100
"COc1ccc(Cl)cc1C(=O)NC[C@@H](O)c1ccc(C[C@H]2SC(=O)NC2=O)cc1 [Exemple 40, (R,S) 5-{4-[1-hydroxy-2-(5-chloro-2-méthoxybenzamido)éthyl]benzyl} thiazolidine-2,4-dione]",Pouvoir hypoglycémiant,souris ob/ob,100
"O=C1NC(=O)C(Cc2ccc(CCNC(=O)c3cnccn3)cc2)S1 (racemic) [Exemple 25, (R,S) 5-{4-[2-(pyrazin-2-ylcarbonylamino)éthyl]benzyl}thiazolidine-2,4-dione]",Pouvoir hypoglycémiant,souris ob/ob,100
"COc1ccc(C=CC(=O)NCCc2ccc(CC3SC(=O)NC3=O)cc2)cc1OC (racemic) [Exemple 43, (R,S) 5-{4-[2-(3-(3,4-diméthoxyphényl)prop-2-énoylamino)éthyl]benzyl} thiazolidine-2,4-dione]",Pouvoir hypoglycémiant,souris ob/ob,100
"CC(C)(C)c1cc(OCCc2ccc(CC3SC(=O)NC3=O)cc2)cc(C(C)(C)C)c1O (racemic) [Exemple 41, (R,S) 5-{4-[2-(3,5-di-tert-butyl-4-hydroxyphénoxy)éthyl]benzyl} thiazolidine-2,4-dione]",Pouvoir hypoglycémiant,souris ob/ob,100
"O=C(C=Cc1ccc2c(c1)OCO2)NCCc1ccc(CC2SC(=O)NC2=O)cc1 (racemic) [Exemple 44, (R,S) 5-{4-[2-(3-(3,4-méthylènedioxyphényl)prop-2-énoylamino)éthyl]benzyl} thiazolidine-2,4-dione]",Pouvoir hypoglycémiant,souris ob/ob,100
"O=C1NC(=O)C(Cc2ccc(CCNC(=O)c3ccco3)cc2)S1 (racemic) [Exemple 14, (R,S) 5-{4-[2-(fur-2-ylcarbonylamino)éthyl]benzyl}thiazolidine-2,4-dione]",Pouvoir hypoglycémiant,souris ob/ob,100
"O=C(CC(c1ccccc1)c1ccccc1)NCCc1ccc(CC2SC(=O)NC2=O)cc1 (racemic) [Exemple 6, (R,S) 5-{4-[2-(3,3-diphénylpropionamido)éthyl]benzyl}thiazolidine-2,4-dione]",Pouvoir hypoglycémiant,souris ob/ob,100
"Cc1cccc(C)c1C(C(=O)NCCc1ccc(CC2SC(=O)NC2=O)cc1)c1c(C)cccc1C (racemic) [Exemple 46, (R,S) 5-{4-[2-(2,2-bis(2,6-diméthylphényl)acétylamino)éthyl]benzyl} thiazolidine-2,4-dione]",Pouvoir hypoglycémiant,souris ob/ob,100
"COc1ccc(OC)c(C(=O)NCCc2ccc(CC3SC(=O)NC3=O)cc2)c1 (racemic) [Exemple 7, (R,S) 5-{4-[2-(2,5-diméthoxybenzamido)éthyl]benzyl}thiazolidine-2,4-dione]",Pouvoir hypoglycémiant,souris ob/ob,100
"Cc1cc(C(=O)NCCc2ccc(CC3SC(=O)NC3=O)cc2)no1 (racemic) [Exemple 15, (R,S) 5-{4-[2-(5-méthyl 1,2-oxazol-3-ylcarbonylamino)éthyl]benzyl} thiazolidine-2,4-dione]",Pouvoir hypoglycémiant,souris ob/ob,100
"O=C1NC(=O)C(Cc2ccc(CCNC(=O)c3ccccc3O)cc2)S1 (racemic) [Exemple 3, (R,S) 5-{4-[2-(salicyloyamino) éthyl]benzyl} thiazolidine-2,4-dione]",Pouvoir hypoglycémiant,souris ob/ob,100
